From PubChem BioAssay (NCI)
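How tested: cells in 96-well plates exposed to compound for 48 hours at five concentrations. GI50: concentration for 50% inhibition of growth. TGI: concentration producing complete growth inhibition.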

Legend:
Assay in all cases: DTP human tumour cell line panel, 48 h
SR leukemia = test system: SR leukemia
SK-OV-3 ovarian = test system: SK-OV-3 ovarian
SNB-75 CNS = test system: SNB-75 CNS
COLO 205 colon = test system: COLO 205 colon
LOX IMVI melanoma = test system: LOX IMVI melanoma
SK-MEL-28 melanoma = test system: SK-MEL-28 melanoma
SK-MEL-2 melanoma = test system: SK-MEL-2 melanoma
SF-539 CNS = test system: SF-539 CNS
UO-31 renal = test system: UO-31 renal
K-562 leukemia = test system: K-562 leukemia
TK-10 renal = test system: TK-10 renal
EKVX NSCLC = test system: EKVX NSCLC
HS 578T breast = test system: HS 578T breast
HCC-2998 colon = test system: HCC-2998 colon
NCI-H23 lung = test system: NCI-H23 lung
CCRF-CEM leukemia = test system: CCRF-CEM leukemia
NCI-H226 lung = test system: NCI-H226 lung
SK-MEL-5 melanoma = test system: SK-MEL-5 melanoma
RPMI-8226 leukemia = test system: RPMI-8226 leukemia
NCI/ADR-RES ovarian = test system: NCI/ADR-RES ovarian
SW-620 colon = test system: SW-620 colon
HT29 colon = test system: HT29 colon
HCT-15 colon = test system: HCT-15 colon
OVCAR-8 ovarian = test system: OVCAR-8 ovarian
T-47D breast = test system: T-47D breast
OVCAR-4 ovarian = test system: OVCAR-4 ovarian
MCF7 breast = test system: MCF7 breast
SF-268 CNS = test system: SF-268 CNS
KM12 colon = test system: KM12 colon
UACC-257 melanoma = test system: UACC-257 melanoma
OVCAR-5 ovarian = test system: OVCAR-5 ovarian
BT-549 breast = test system: BT-549 breast
ACHN renal = test system: ACHN renal
IGROV1 ovarian = test system: IGROV1 ovarian
MDA-MB-231 breast = test system: MDA-MB-231 breast
CAKI-1 renal = test system: CAKI-1 renal
HOP-62 NSCLC = test system: HOP-62 NSCLC
DU-145 prostate = test system: DU-145 prostate
NCI-H522 lung = test system: NCI-H522 lung
A498 renal = test system: A498 renal
SN12C renal = test system: SN12C renal
MALME-3M melanoma = test system: MALME-3M melanoma
HCT-116 colon = test system: HCT-116 colon
UACC-62 melanoma = test system: UACC-62 melanoma
PC-3 prostate = test system: PC-3 prostate
RXF 393 renal = test system: RXF 393 renal
NCI-H460 lung = test system: NCI-H460 lung
SF-295 CNS = test system: SF-295 CNS
HOP-92 NSCLC = test system: HOP-92 NSCLC
SNB-19 CNS = test system: SNB-19 CNS
MDA-MB-435 = test system: MDA-MB-435
786-0 renal = test system: 786-0 renal
M14 melanoma = test system: M14 melanoma
HL-60(TB) leukemia = test system: HL-60(TB) leukemia
MOLT-4 leukemia = test system: MOLT-4 leukemia
U251 CNS = test system: U251 CNS
A549 NSCLC = test system: A549 NSCLC

O=C1CCC(N2C(=O)c3ccc(NS(=O)(=O)c4ccccc4OC(F)(F)F)cc3C2=O)C(=O)N1 (stereo unspecified)
GI50 (SR leukemia): 10800 nM
TGI (SR leukemia): > 100000 nM
GI50 (SK-OV-3 ovarian): 2600 nM
TGI (SK-OV-3 ovarian): > 100000 nM
GI50 (SNB-75 CNS): 110 nM
TGI (SNB-75 CNS): 2680 nM
GI50 (COLO 205 colon): 857 nM
TGI (COLO 205 colon): > 27200 nM
GI50 (LOX IMVI melanoma): > 100000 nM
TGI (LOX IMVI melanoma): > 100000 nM
GI50 (SK-MEL-28 melanoma): 7370 nM
TGI (SK-MEL-28 melanoma): > 100000 nM
GI50 (SK-MEL-2 melanoma): 1670 nM
TGI (SK-MEL-2 melanoma): 38400 nM
GI50 (SF-539 CNS): > 50700 nM
TGI (SF-539 CNS): > 100000 nM
GI50 (UO-31 renal): 306 nM
TGI (UO-31 renal): > 29100 nM
GI50 (K-562 leukemia): 3010 nM
TGI (K-562 leukemia): > 100000 nM
GI50 (TK-10 renal): 2720 nM
TGI (TK-10 renal): > 100000 nM
GI50 (EKVX NSCLC): > 100000 nM
TGI (EKVX NSCLC): > 100000 nM
GI50 (HS 578T breast): 58.2 nM
TGI (HS 578T breast): 1430 nM
GI50 (HCC-2998 colon): 729 nM
TGI (HCC-2998 colon): > 70800 nM
GI50 (NCI-H23 lung): > 100000 nM
TGI (NCI-H23 lung): > 100000 nM
GI50 (CCRF-CEM leukemia): 31.2 nM
GI50 (NCI-H226 lung): 1120 nM
TGI (NCI-H226 lung): > 100000 nM
GI50 (SK-MEL-5 melanoma): 2560 nM
TGI (SK-MEL-5 melanoma): > 27000 nM
GI50 (RPMI-8226 leukemia): 7630 nM
TGI (RPMI-8226 leukemia): > 100000 nM
GI50 (NCI/ADR-RES ovarian): 700 nM
TGI (NCI/ADR-RES ovarian): > 100000 nM
GI50 (SW-620 colon): 312 nM
TGI (SW-620 colon): > 100000 nM
GI50 (HT29 colon): 7700 nM
TGI (HT29 colon): > 100000 nM
GI50 (HCT-15 colon): 100 nM
TGI (HCT-15 colon): > 68000 nM
GI50 (OVCAR-8 ovarian): 159 nM
TGI (OVCAR-8 ovarian): > 100000 nM
GI50 (T-47D breast): 165 nM
GI50 (OVCAR-4 ovarian): 2610 nM
TGI (OVCAR-4 ovarian): > 100000 nM
GI50 (MCF7 breast): 1680 nM
TGI (MCF7 breast): > 100000 nM
GI50 (SF-268 CNS): 911 nM
TGI (SF-268 CNS): > 100000 nM
GI50 (KM12 colon): 1970 nM
TGI (KM12 colon): > 100000 nM
GI50 (UACC-257 melanoma): > 100000 nM
TGI (UACC-257 melanoma): > 100000 nM
GI50 (OVCAR-5 ovarian): 12600 nM
TGI (OVCAR-5 ovarian): > 100000 nM
GI50 (BT-549 breast): 120 nM
TGI (BT-549 breast): 1610 nM
GI50 (ACHN renal): 8700 nM
TGI (ACHN renal): > 100000 nM
GI50 (IGROV1 ovarian): 465 nM
TGI (IGROV1 ovarian): > 100000 nM
GI50 (MDA-MB-231 breast): 82 nM
TGI (MDA-MB-231 breast): 2260 nM
GI50 (CAKI-1 renal): 456 nM
TGI (CAKI-1 renal): > 100000 nM
GI50 (HOP-62 NSCLC): 187 nM
TGI (HOP-62 NSCLC): 2460 nM
GI50 (DU-145 prostate): > 100000 nM
TGI (DU-145 prostate): > 100000 nM
TGI (NCI-H522 lung): > 100000 nM
GI50 (A498 renal): 266 nM
TGI (A498 renal): 1750 nM
GI50 (SN12C renal): 1140 nM
TGI (SN12C renal): > 100000 nM
GI50 (MALME-3M melanoma): 147 nM
TGI (MALME-3M melanoma): 3490 nM
GI50 (HCT-116 colon): > 100000 nM
TGI (HCT-116 colon): > 100000 nM
GI50 (UACC-62 melanoma): 16100 nM
TGI (UACC-62 melanoma): > 100000 nM
GI50 (PC-3 prostate): 455 nM
TGI (PC-3 prostate): > 27800 nM
GI50 (RXF 393 renal): 609 nM
TGI (RXF 393 renal): 7950 nM
GI50 (NCI-H460 lung): > 100000 nM
TGI (NCI-H460 lung): > 100000 nM
GI50 (SF-295 CNS): 4380 nM
TGI (SF-295 CNS): > 100000 nM
GI50 (HOP-92 NSCLC): 22 nM
TGI (HOP-92 NSCLC): 161 nM
GI50 (SNB-19 CNS): 843 nM
TGI (SNB-19 CNS): > 100000 nM
GI50 (MDA-MB-435): 6340 nM
TGI (MDA-MB-435): > 100000 nM
GI50 (786-0 renal): 668 nM
TGI (786-0 renal): > 100000 nM
GI50 (M14 melanoma): 1590 nM
TGI (M14 melanoma): > 100000 nM
GI50 (HL-60(TB) leukemia): 27.9 nM
TGI (HL-60(TB) leukemia): 350 nM
GI50 (MOLT-4 leukemia): 31.4 nM
TGI (MOLT-4 leukemia): 341 nM
GI50 (U251 CNS): > 100000 nM
TGI (U251 CNS): > 100000 nM
GI50 (A549 NSCLC): 7000 nM
TGI (A549 NSCLC): > 100000 nM
